The results in this text go back to patent US6057357A, “Peripherally selective kappa opioid agonists” (Warner-Lambert Company, priority 1999, dated 2000).

The term ED50 denotes the dose at which the effect has come halfway, by size or by number of responders.

Series [1] is described as follows: Rotarod Test in Mice (ataxic reaction). Type of series: in vivo, mouse. The conditions noted are these: mouse, rotarod, sc; subcutaneous, t=-30 min. The method, then: (§1) Swiss male mice (IFFA-CREDO) at 22±3 grams on the test day.
(§2) Room temperature: 21.2±0.2° C.
(§3) Rotarod (Ugobasile) at 18 rotations per minute.
(§4) t=-180 minutes and t=-120 minutes: mice trained to stay on the bar at least 120 seconds before falling off.
(§5) t=-30 minutes: Subcutaneous administration of drug at 1 mL/100 g body weight as either solution in distilled water or suspension in an aqueous solution of hydroxypropylmethylcellulose 0.2% (v/v).
(§6) t=0 minutes: Ataxic reaction: time taken for mouse to fall off the rotarod (maximum time 120 seconds).
(§7) Results: Mean±sem per group
(§8) Dunnett's test after analysis of variance (Anova one way).

The test system of series [2] is Swiss male mice. Briefly: Rotarod Test in Mice (ataxic reaction). Type of series: in vivo, mouse. As to conditions: subcutaneous, t=-30 min; ED50 of 10 mg/kg. As to the method:
as §1, §2, §3, §4, §5, §6, §7, §8
On the technique in general: The rotarod test checks motor coordination on a turning rod.

Series [3] deals with Swiss male mice. As to the kind of experiment: Formalin Test in Mice: Late Phase. As to conditions: Mus musculus, sc, subcutaneous, t=-10 min before formalin 5%. In kind it is in vivo. The method, then: Formalin Test in Mice: Late Phase
Swiss male mice (IFFA-CREDO) at 22±3 grams on test day.
Room temperature: 24.5<T<24.8° C.
t=-10 minutes. Subcutaneous administration of drug at 1 mL/100 g body weight. Either as a solution in distilled water or suspension in an aqueous solution of hydroxypropylmethylcellulose 0.2% (v/v).
t=0 minutes. Formalin 5% in sterile saline (v/v) administered by intraplanatar injection (20 μL) into the left paw.
t=+15 minutes. Mouse placed in cylinder.
t=+25 minutes. Nociceptive reaction: number of times left paw is licked during the observation period.
as §7, §8
Reference: S. Hunskaar, Journal of Neuroscience Methods, 1985;14:69-76.

With `CN(C(=O)Cc1cc2ccccc2o1)[C@H](CN1CCCC1)c1cccc(OCC(=O)O)c1` [Compound 15, (S)-(3-{1-[(Benzofuran-2-yl-acetyl)-methyl-amino]-2-pyrrolidin-1-yl-ethyl}-phenoxy)-acetic acid], the ED50 at 0.5 h in series [1] was more than 10 mg/kg. For the same compound, the “Mouse Rotarod percent effect (in parentheses beside ED50)” value (“Mouse Rotarod percent effect” below) in the series on Swiss male mice [2] was 0%. For the same compound, the 50% effect level in the series with Swiss male mice [3] (ED50) was put at a dose of 2.95 mg/kg.

Consider `CN(C(=O)Cc1coc2ccccc12)[C@H](CN1CCCC1)c1cccc(OCC(=O)O)c1` [Compound 19, (S)-(3-{1-[(Benzofuran-3-yl-acetyl)-methyl-amino]-2-pyrrolidin-1-yl-ethyl}-phenoxy)-acetic acid], for which the ED50 at 0.5 h in series [1] is more than 10 mg/kg. In the series on Swiss male mice [2], the “Mouse Rotarod percent effect” value came to 0%. The compound also returned an ED50 in the series on Swiss male mice [3] of 1.17 mg/kg.

On to `CN(C(=O)Cc1ccc(S(C)(=O)=O)cc1)[C@H](CN1CCCC1)c1cccc(OCC(=O)O)c1` [Compound 23], for which it took a dose of 6.1 mg/kg to reach the 50% effect level in the series on Swiss male mice [3] (ED50).

For the compound `CN(C(=O)Cc1coc2ccccc12)[C@H](CN1CC[C@H](O)C1)c1cccc(OCC(=O)O)c1` [Compound 28, [S-(R*,R*)]-{3-[1-[(Benzofuran-3-yl-acetyl)-methyl-amino]-2-(3-hydroxy-pyrrolidin-1-yl)-ethyl]-phenoxy}-acetic acid], the ED50 at 0.5 h in series [1] was approximately 10 mg/kg. Besides, in the series on Swiss male mice [2], the “Mouse Rotarod percent effect” value is listed as 53%. The same compound displayed an ED50 with Swiss male mice [3] of 0.36 mg/kg.

`CN(C(=O)Cc1cc2ccccc2o1)[C@H](CN1CC[C@H](O)C1)c1cccc(OCC(=O)O)c1` [Compound 33, [S-(R*,R*)]-{3-[1-[(Benzofuran-2-yl-acetyl)-methyl-amino]-2-(3-hydroxy-pyrrolidin-1-yl)-ethyl]-phenoxy}-acetic acid] displayed an ED50 at 0.5 h in series [1] of approximately 10 mg/kg. The “Mouse Rotarod percent effect” value in the series with Swiss male mice [2] is listed as 53%. Moreover, it took a dose of 0.19 mg/kg to reach the 50% effect level in the series with Swiss male mice [3] (ED50).

The compound `CN(C(=O)Cc1cccc2occc12)[C@H](CN1CC[C@H](O)C1)c1cccc(OCC(=O)O)c1` [Compound 38] registered an ED50 at 0.5 h in series [1] of more than 10 mg/kg. Moreover, in the series on Swiss male mice [2], the “Mouse Rotarod percent effect” value was found to be 0%. The 50% effect level with Swiss male mice [3] (ED50) was put at a dose of 0.95 mg/kg.

In turn, `CN(C(=O)Cc1ccc(S(C)(=O)=O)cc1)[C@H](CN1CC[C@H](O)C1)c1cccc(OCC(=O)O)c1` [Compound 43] returned an ED50 at 0.5 h in series [1] of more than 10 mg/kg. Moreover, in the series on Swiss male mice [2], the “Mouse Rotarod percent effect” value was determined as 0%. The same compound came in with an ED50 in the series with Swiss male mice [3] of 0.51 mg/kg.
